According to the NIST ThermoML archive (doi:10.1016/j.jct.2016.03.029):
Numbers after ± are expanded uncertainties.

Legend:
[1] = 100 kPa, Liquid; for speed of sound: Frequency=3 MHz, Sing-around technique in a fixed-path interferometer; for mass density: Vibrating tube method
[2] = refractive index (Na D-line) (dimensionless); conditions: 100 kPa, Liquid, Standard Abbe refractometry
[3] = xn = mol fraction of the nth substance listed; conditions: 100 kPa, Liquid, x2 = 0; for speed of sound: Frequency=3 MHz, Sing-around technique in a fixed-path interferometer; for mass density: Vibrating tube method
[4] = refractive index (Na D-line) (dimensionless); xn = mol fraction of the nth substance listed; conditions: 100 kPa, Liquid, Standard Abbe refractometry, x2 = 0

SMILES | speed of sound ([1]; 298.15 K) | mass density ([1]; 298.15 K) | speed of sound ([1]; 303.15 K) | mass density ([1]; 303.15 K) | speed of sound ([1]; 308.15 K) | mass density ([1]; 308.15 K) | speed of sound ([1]; 313.15 K) | mass density ([1]; 313.15 K) | speed of sound ([1]; 318.15 K) | mass density ([1]; 318.15 K) | speed of sound ([1]; 323.15 K) | mass density ([1]; 323.15 K) | refractive index ([2]; 298.15 K) | refractive index ([2]; 303.15 K) | refractive index ([2]; 308.15 K) | refractive index ([2]; 313.15 K) | refractive index ([2]; 318.15 K) | refractive index ([2]; 323.15 K) | also measured
CCCC[n+]1ccn(C)c1.O=S(=O)([N-]S(=O)(=O)C(F)(F)F)C(F)(F)F | 1227.9 ± 1.3 m/s | 1433.72 ± 1 kg/m3 | 1216.8 ± 1.3 m/s | 1428.92 ± 1 kg/m3 | 1205.8 ± 1.2 m/s | 1424.13 ± 1 kg/m3 | 1195 ± 1.2 m/s | 1419.36 ± 1 kg/m3 | 1184.2 ± 1.2 m/s | 1414.61 ± 1 kg/m3 | 1173.6 ± 1.2 m/s | 1409.88 ± 1 kg/m3 | 1.42671 ± 0.00085 | 1.42522 ± 0.00085 | 1.42373 ± 0.00085 | 1.42225 ± 0.00085 | 1.42076 ± 0.00085 | 1.41923 ± 0.00085 | –
CN1CCCC1=O [N-methylpyrrolidone] | 1543.8 ± 1.4 m/s | 1027.1 ± 1 kg/m3 | 1524.3 ± 1.4 m/s | 1022.64 ± 1 kg/m3 | 1505 ± 1.4 m/s | 1018.18 ± 1 kg/m3 | 1485.7 ± 1.4 m/s | 1013.72 ± 1 kg/m3 | 1466.7 ± 1.4 m/s | 1009.25 ± 1 kg/m3 | 1447.8 ± 1.4 m/s | 1004.79 ± 1 kg/m3 | 1.46838 ± 0.00086 | 1.46626 ± 0.00086 | 1.46412 ± 0.00086 | 1.46199 ± 0.00086 | 1.45983 ± 0.00086 | 1.45771 ± 0.00086 | –
CN1CCCC1=O [N-methylpyrrolidone] + CCCC[n+]1ccn(C)c1.O=S(=O)([N-]S(=O)(=O)C(F)(F)F)C(F)(F)F | – | – | – | – | – | – | – | – | – | – | – | – | – | – | – | – | – | – | speed of sound ([3]; 298.15 K): 1543.8 ± 1.4 m/s; mass density ([3]; 298.15 K): 1027.1 ± 1 kg/m3; speed of sound ([3]; 303.15 K): 1524.3 ± 1.4 m/s; mass density ([3]; 303.15 K): 1022.64 ± 1 kg/m3; speed of sound ([3]; 308.15 K): 1505 ± 1.4 m/s; mass density ([3]; 308.15 K): 1018.18 ± 1 kg/m3; speed of sound ([3]; 313.15 K): 1485.7 ± 1.4 m/s; mass density ([3]; 313.15 K): 1013.72 ± 1 kg/m3; speed of sound ([3]; 318.15 K): 1466.7 ± 1.4 m/s; mass density ([3]; 318.15 K): 1009.25 ± 1 kg/m3; speed of sound ([3]; 323.15 K): 1447.8 ± 1.4 m/s; mass density ([3]; 323.15 K): 1004.79 ± 1 kg/m3; refractive index ([4]; 298.15 K): 1.46838 ± 0.00086; refractive index ([4]; 303.15 K): 1.46626 ± 0.00086; refractive index ([4]; 308.15 K): 1.46412 ± 0.00086; refractive index ([4]; 313.15 K): 1.46199 ± 0.00086; refractive index ([4]; 318.15 K): 1.45983 ± 0.00086; refractive index ([4]; 323.15 K): 1.45771 ± 0.00086
